From ChEMBL document CHEMBL3244383, “Antiinflammatory activity of 17-esters of 6alpha,9alpha-difluoro-21-deoxyprednisolone” (1977) come the findings set out here.

Holding throughout (format): functional
The species entered for assay [1] is Rattus norvegicus. The assay can be described thus: Antiexudative activity in rat assessed as inhibition of exudate formation in granuloma pouch at 0.002 umol compound injected into pouch on day 5 measured on day 11 relative to control.
For assay [2], the species on record is Rattus norvegicus. The assay can be described thus: Antiexudative activity in rat assessed as inhibition of exudate formation in granuloma pouch at 0.02 umol compound injected into pouch on day 5 measured on day 11 relative to control.
In the next assay the test system is Homo sapiens. The assay can be described thus: Vasoconstrictive activity in human at 0.02 to 0.18 ug applied topically by paper-patch test relative to betamethasone 17-valerate.
Assay [3] relates to Rattus norvegicus. The experiment in a line: Antiexudative activity in rat assessed as inhibition of exudate formation in granuloma pouch at 0.002 umol, sc administered from day 2 to day 10 measured on day 11 relative to control.
Assay [4] concerns Rattus norvegicus. The experiment in a line: Antiexudative activity in rat assessed as inhibition of exudate formation in granuloma pouch at 0.02 umol, sc administered from day 2 to day 10 measured on day 11 relative to control.

Regarding `CCCC(=O)O[C@]1(C(C)=O)CC[C@H]2[C@@H]3C[C@H](F)C4=CC(=O)C=C[C@]4(C)[C@@]3(F)[C@@H](O)C[C@@]21C`, the “inhibition (INH)” value in the assay filed under Rattus norvegicus [1] is on record as 60%; in the assay filed under Rattus norvegicus [2], 81%. The “fold change (FC)” value in the assay on Homo sapiens was determined as 2.5.

For `CCC(=O)O[C@]1(C(C)=O)CC[C@H]2[C@@H]3C[C@H](F)C4=CC(=O)C=C[C@]4(C)[C@@]3(F)[C@@H](O)C[C@@]21C`, the results for the “inhibition (INH)” value in the assay listed under Rattus norvegicus [1] and in the assay listed under Rattus norvegicus [2] were 47% and 67%, respectively. Further, the “fold change (FC)” value in the assay on Homo sapiens is 2.5.

For `CCC(=O)O[C@]1(C(=O)CO)CC[C@H]2[C@@H]3C[C@H](F)C4=CC(=O)C=C[C@]4(C)[C@@]3(F)[C@@H](O)C[C@@]21C`, the “inhibition (INH)” value in the assay listed under Rattus norvegicus [1] is recorded as less than 5%; in the assay filed under Rattus norvegicus [2], 41%.

As to `CC(=O)O[C@]1(C(C)=O)CC[C@H]2[C@@H]3C[C@H](F)C4=CC(=O)C=C[C@]4(C)[C@@]3(F)[C@@H](O)C[C@@]21C`, the “inhibition (INH)” value is reported as 18% in the assay listed under Rattus norvegicus [1] and 13% in the assay listed under Rattus norvegicus [2]. In addition, the “fold change (FC)” value with Homo sapiens was found to be 1.5.

On to `C[C@]12C=CC(=O)C=C1[C@@H](F)C[C@H]1[C@@H]3CC[C@](OC(=O)c4ccccc4)(C(=O)CO)[C@@]3(C)C[C@H](O)[C@@]12F`, for which the “inhibition (INH)” value is reported as 46% in the assay filed under Rattus norvegicus [1], 70% in the assay filed under Rattus norvegicus [2], 20% with Rattus norvegicus [3] and 62% with Rattus norvegicus [4].

As to `CC(=O)[C@@]1(OC(=O)c2ccccc2)CC[C@H]2[C@@H]3C[C@H](F)C4=CC(=O)C=C[C@]4(C)[C@@]3(F)[C@@H](O)C[C@@]21C`, the “inhibition (INH)” value is given as 71% in the assay filed under Rattus norvegicus [1], 90% in the assay filed under Rattus norvegicus [2], less than 5% with Rattus norvegicus [3] and 35% in the assay on Rattus norvegicus [4]. Further, in the assay with Homo sapiens, the “fold change (FC)” value is listed as “<=1”.
